{
  "source": "patent US20050282205A1",
  "about": "“GLUT5 transporters expressed in cancer cells” (Xenoport, Inc., priority 2004, published 2005)",
  "biological_target": "T1, Human GLUT5 (Homo sapiens, UniProt P22732)",
  "T1 construct": "expressed in transfected cells; host or cells: Xenopus oocytes injected with in vitro transcribed GLUT5 cRNA",
  "T1 sequence (P22732 1-501)": "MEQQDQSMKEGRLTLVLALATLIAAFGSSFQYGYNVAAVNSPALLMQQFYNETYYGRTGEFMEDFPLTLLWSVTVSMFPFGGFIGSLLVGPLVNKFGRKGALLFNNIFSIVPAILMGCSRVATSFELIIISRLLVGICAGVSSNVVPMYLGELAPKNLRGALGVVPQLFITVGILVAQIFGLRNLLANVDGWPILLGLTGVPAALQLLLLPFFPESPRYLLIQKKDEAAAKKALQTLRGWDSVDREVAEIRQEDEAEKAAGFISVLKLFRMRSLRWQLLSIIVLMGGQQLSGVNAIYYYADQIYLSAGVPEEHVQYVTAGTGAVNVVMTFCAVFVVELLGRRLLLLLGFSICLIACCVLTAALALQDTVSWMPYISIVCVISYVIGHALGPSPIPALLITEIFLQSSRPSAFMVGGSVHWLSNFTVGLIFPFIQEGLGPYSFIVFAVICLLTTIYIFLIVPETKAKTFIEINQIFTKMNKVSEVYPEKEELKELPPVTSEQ",
  "experiment": "3H-fructose uptake in Xenopus oocytes expressing GLUT5",
  "type": "cell-based",
  "details": "Xenopus oocytes injected with GLUT5 cRNA, ND96 buffer, 3 minutes, scintillation counting (FIG. 2)",
  "protocol": "To assess transport function of a specific transporter protein, it can be desirable to clone the cDNA and express the protein in cells that have low endogenous transport activity. Human GLUT5 was cloned by PCR, fully sequenced, and subcloned into plasmids that can be used for expression in mammalian cells or Xenopus oocytes. […] For expression in Xenopus oocytes, in vitro GLUT5 cRNA was prepared and injected into defoliculated oocytes.\nOocytes expressing GLUT5 or control oocytes not expressing GLUT5 were incubated in an oocyte ringers (ND96) buffer (90 mM NaCl, 10 mM HemiNa HEPES, 2 mM KCl, 1 mM MgCl, 1.8 mM CaCl2) containing 0.5% bovine serum albumin and 3H-fructose ([…]) for 3 minutes. Oocytes were washed and uptake of radiolabel quantified by scintillation counting.",
  "data": [
    {"smiles": "O=C(CO)[C@@H](O)[C@H](O)[C@H](O)CO", "note": "[^3H-fructose, fructose]", "values": [
      {"measurement": "uptake of radiolabel into oocytes expressing GLUT5 versus noninjected controls", "value": "higher levels of ^3H-fructose uptake than noninjected controls"}
    ]}
  ]
}
